Data published in ChEMBL document CHEMBL3525922, “Significance of reductive metabolism in human intestine and quantitative prediction of intestinal first-pass metabolism by cytosolic reductive enzymes” (Drug Metab Dispos, 2013).
One block for each compound: values may come before it.

How the values were obtained:
Liver microsome [1] = experiment: Unbound intrinsic clearance in human liver microsomes at 50 to 1000 nM after 30 to 60 mins by HPLC-MS/MS analysis; type: ADME; details: 1 µM
[2] = Metabolic stability in human intestinal microsomes assessed as compound remaining at 50 to 1000 nM after 60 mins by HPLC-MS/MS analysis; type: ADME, Intestine, Microsome; details: read-out: Stability
[3] = Intrinsic clearance in human intestinal microsomes at 50 to 1000 nM after 60 mins by HPLC-MS/MS analysis; type: ADME, Intestine, Microsome; details: 1 h, 1 µM
[4] = Metabolic stability in human intestinal S9 fraction assessed as compound remaining at 50 to 1000 nM after 60 mins by HPLC-MS/MS analysis; type: ADME, Intestine; details: read-out: Stability
[5] = Intrinsic clearance in human intestinal S9 fraction at 50 to 1000 nM after 60 mins by HPLC-MS/MS analysis; type: ADME, Intestine; details: s9, 1 h, 1 µM
[6] = Metabolic stability in human intestinal S9 fraction assessed as compound remaining at 50 to 1000 nM after 60 mins by HPLC-MS/MS analysis in presence of NADH; design: dose or concentration left out as unconfirmed
[7] = Metabolic stability in human intestinal cytosol at 200 nM after 30 mins in presence of menadione; type: ADME, Intestine; details: 0.5 h, 0.2 µM
[8] = Drug metabolism in human intestinal cytosol at 200 nM after 30 mins in presence of flufenamic acid; type: ADME, Intestine; details: 0.5 h, 0.2 µM
[9] = Drug metabolism in human intestinal cytosol at 200 nM after 30 mins in presence of ondansetron; type: ADME, Intestine; details: 0.5 h, 0.2 µM
[10] = Apparent permeability of the compound at 50 uM at pH 7.4 after 240 mins by PAMPA; type: physicochemical
Liver microsome [11] = experiment: Drug metabolism in human liver microsomes assessed as hydrolyzed metabolite formation at 10 uM after 19.83 mins by HPLC-MS analysis; type: ADME; details: 0.3305 h
Liver cytosol [12] = experiment: Drug metabolism in human liver cytosol assessed as reductive metabolite formation at 10 uM after 20.80 mins by HPLC-MS analysis; type: ADME, tissue-based; details: 0.346667 h
[13] = Drug metabolism in human liver S9 fraction assessed as hydrolyzed metabolite formation at 10 uM after 19.80 mins by HPLC-MS analysis; type: ADME, subcellular; details: s9, 0.33 h
[14] = Drug metabolism in human liver S9 fraction assessed as reductive metabolite formation at 10 uM after 20.76 mins by HPLC-MS analysis; type: ADME, subcellular; details: s9, 0.346 h
[15] = Drug metabolism in human intestinal cytosol assessed as reductive metabolite formation at 10 uM after 20.74 mins by HPLC-MS analysis; type: ADME, Intestine; details: 0.345667 h
[16] = Drug metabolism in human intestinal S9 fraction assessed as reductive metabolite formation at 10 uM after 20.69 mins by HPLC-MS analysis; type: ADME, Intestine; details: s9, 0.344833 h
[17] = human, s9, 1 h, 1 µM
Liver cytosol [18] = experiment: Drug level in human liver cytosol treated with 10 uM mebendazole after 20.80 mins by HPLC-MS analysis; type: ADME, tissue-based; details: 0.346667 h
Liver [19] = experiment: Drug level in human liver S9 fraction treated with 10 uM mebendazole after 19.80 to 20.76 mins by HPLC-MS analysis; type: ADME, subcellular
[20] = Drug level in human intestinal cytosol treated with 10 uM mebendazole after 20.74 mins by HPLC-MS analysis; type: ADME, Intestine; details: 0.345667 h
[21] = Drug level in human intestinal S9 fraction treated with 10 uM mebendazole 20.69 mins by HPLC-MS analysis; type: ADME, Intestine; details: s9, 0.344833 h
[22] = Unbound intrinsic clearance in human intestinal microsomes at 50 to 1000 nM after 30 to 60 mins by HPLC-MS/MS analysis; type: ADME, Intestine, Microsome; details: 1 µM
[23] = Unbound intrinsic clearance in human intestinal cytosol at 50 to 1000 nM after 30 to 60 mins by HPLC-MS/MS analysis; type: ADME, Intestine; details: 1 µM
Liver cytosol [24] = experiment: Unbound intrinsic clearance in human liver cytosol at 50 to 1000 nM after 30 to 60 mins by HPLC-MS/MS analysis; type: ADME, tissue-based; details: 1 µM
[25] = Unbound intrinsic clearance in human intestinal S9 fraction at 50 to 1000 nM after 30 to 60 mins by HPLC-MS/MS analysis; type: ADME, Intestine; details: s9, 1 µM
Liver [26] = experiment: Unbound intrinsic clearance in human liver S9 fraction at 50 to 1000 nM after 30 to 60 mins by HPLC-MS/MS analysis; type: ADME, subcellular; details: s9, 1 µM
[27] = Unbound intrinsic clearance in human intestinal S9 fraction at 50 to 1000 nM after 30 to 60 mins by HPLC-MS/MS analysis in presence of NADH; type: ADME, Intestine; details: s9, 1 µM
[28] = Unbound intrinsic clearance in human intestinal S9 fraction at 50 to 1000 nM after 30 to 60 mins by HPLC-MS/MS analysis in presence of NADPH; type: ADME, Intestine; details: s9, 1 µM
[29] = Metabolic stability in human intestinal cytosol at 200 nM after 60 mins in presence of menadione; type: ADME, Intestine; details: 1 h, 0.2 µM
[30] = Drug metabolism in human intestinal cytosol at 200 nM after 60 mins in presence of flufenamic acid; type: ADME, Intestine; details: 1 h, 0.2 µM
[31] = Drug metabolism in human intestinal cytosol at 200 nM after 60 mins in presence of ondansetron; type: ADME, Intestine; details: 1 h, 0.2 µM
[32] = biological target: T1, carbonyl reductase (Carbonyl reductase [NADPH] 1) (Homo sapiens, UniProt P16152); experiment: Activity of carbonyl reductase in liver cytosol (unknown origin) assessed as enzyme-mediated drug metabolism; type: ADME, tissue-based
T1 sequence (P16152 whole entry): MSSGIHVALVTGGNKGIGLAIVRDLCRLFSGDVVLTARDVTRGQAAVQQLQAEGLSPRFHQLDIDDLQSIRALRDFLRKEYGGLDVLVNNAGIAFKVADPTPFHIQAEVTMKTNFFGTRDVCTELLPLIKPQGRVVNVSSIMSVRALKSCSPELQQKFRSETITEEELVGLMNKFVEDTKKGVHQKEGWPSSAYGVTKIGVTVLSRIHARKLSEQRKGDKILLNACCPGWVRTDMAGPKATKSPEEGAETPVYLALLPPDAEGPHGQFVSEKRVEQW

[33] = biological target: T1, carbonyl reductase (Carbonyl reductase [NADPH] 1); experiment: Activity of recombinant carbonyl reductase (unknown origin); type: ADME

Compound: COC(=O)Nc1nc2ccc(C(O)c3ccccc3)cc2[nH]1 (stereo unspecified)
Drug metabolism (Liver cytosol [18]): metabolite_detected | Drug metabolism (Liver [19]): metabolite_detected | Drug metabolism [20]: metabolite_detected | Drug metabolism [21]: metabolite_detected

Compound: O=C1Cc2cc(CCN3CCN(c4nsc5ccccc45)CC3)c(Cl)cc2N1 [ZIPRASIDONE]
CL free [22]: 29 µL/min/mg | CL free (Liver microsome [1]): 118 µL/min/mg | CL free [23]: 15 µL/min/mg | CL free (Liver cytosol [24]): 23 µL/min/mg | CL free [25]: 28 µL/min/mg | CL free (Liver [26]): 89 µL/min/mg | remaining at 1 h, up to 1 µM [4]: > 90% | CL [5]: < 1.8 µL/min/mg | CL free [27]: 15 µL/min/mg | CL free [28]: 28 µL/min/mg | Stability [29]: Stable | Drug metabolism [30]: metabolite_detected | Drug metabolism [31]: metabolite_detected | Papp at 4 h, 50 µM [10]: 67.2 ×10⁻⁶ cm/s

Compound: O=C(CCCN1CCC(O)(c2ccc(Cl)cc2)CC1)c1ccc(F)cc1 [HALOPERIDOL]
Drug metabolism [30]: metabolite_detected | Drug metabolism [31]: metabolite_detected | Papp at 4 h, 50 µM [10]: 33.7 ×10⁻⁶ cm/s | Km [32]: 250 µM | Km [33]: 1200 µM

Second part, the compound after the results:

CL free (Liver microsome [1]): 9 µL/min/mg | remaining at 1 h, up to 1 µM [2]: > 90% | CL [3]: < 8.8 µL/min/mg | remaining at 1 h, up to 1 µM [4]: > 90% | CL [5]: < 1.8 µL/min/mg | remaining at 1 h [6]: > 90% | Stability [7]: Stable | Drug metabolism [8]: metabolite_detected | Drug metabolism [9]: metabolite_detected | Papp at 4 h, 50 µM [10]: 48.5 ×10⁻⁶ cm/s | Drug metabolism (Liver microsome [11]): metabolite_detected | Drug metabolism (Liver cytosol [12]): metabolite_detected | Drug metabolism [13]: metabolite_detected | Drug metabolism [14]: metabolite_detected | Drug metabolism [15]: metabolite_detected | Drug metabolism [16]: metabolite_detected | CL [17]: < 1.8 µL/min/mg
Compound: COC(=O)Nc1nc2ccc(C(=O)c3ccccc3)cc2[nH]1 [MEBENDAZOLE]

Drug metabolism (Liver [19]): metabolite_detected
Compound: Nc1nc2ccc(C(=O)c3ccccc3)cc2[nH]1
